The test system of the data set is db/db mice. In words: long term administration of Compound I in db/db mice. It counts as in vivo. The conditions noted are these: 50 mg/kg once a day. As for the experimental part:
After the end of the acute experiment, each group of mice undergone long term administration experiment following the grouping in below: equal volume of distilled water was given to control group of mice; Compound I at the dosage of 50 mg/kg was given to administration group; DDP4 inhibitor, Sitagliptin, at 10 mg/kg was intragastric administrated to positive control group. Dosage volume was 10 ml/kg, once a day for 4 weeks. Weight, blood glucose, and dietary change of the mice were monitored every week. The improvement of diabetic symptom of spontaneous diabetes mellitus type 2 model db/db mice by long term administration of Compound I was evaluated.

Where [1] appears, read: two weeks after the administration.

SMILES strings stand for the structures. Entries after “also recorded” stand apart in the source; their conditions may differ.

`O=C(O)C1O[C@@H](OC2C(O)[C@H](O)C(C(=O)O)O[C@H]2Oc2cc(O)c3c(=O)cc(-c4ccc(O)c(O)c4)oc3c2)C(O)C(O)[C@@H]1O` (stereo partly drawn) [Compound I, luteolin-7-O-[β-glucuronosyl(1→2)β-glucuronic acid]]: the “weight and diet of the mice” value is “did not significantly affect the weight and diet of the mice”. In addition, under setting [1], the fasting blood glucose entry was “significantly decreased; also recorded: lowered fasting blood glucose of mice” and the instant blood glucose result is given as “significantly decreased; also recorded: lowered instant blood glucose of mice”.

Source of the values: patent publication US10966996B2, “Glechoma longitube extract, preparation method for same, and use thereof in sugar reduction, weight loss, and lipid reduction” (SHANGHAI INSTITUTE OF MATERIA MEDICA CHINESE ACADEMY OF …, priority 2014, dated 2021).
